# Data as given in ChEMBL document CHEMBL3039007, “Structure-based identification of OATP1B1/3 inhibitors” (Mol Pharmacol, 2013).
# Counter-ions that a name gives are not always drawn.
# Legend:
# [1] = biological target: T1, Solute carrier organic anion transporter family member 1B1 (Homo sapiens, UniProt Q9Y6L6); conditions: chinese hamster, cho, 10 µM
# T1 sequence (Q9Y6L6 whole entry): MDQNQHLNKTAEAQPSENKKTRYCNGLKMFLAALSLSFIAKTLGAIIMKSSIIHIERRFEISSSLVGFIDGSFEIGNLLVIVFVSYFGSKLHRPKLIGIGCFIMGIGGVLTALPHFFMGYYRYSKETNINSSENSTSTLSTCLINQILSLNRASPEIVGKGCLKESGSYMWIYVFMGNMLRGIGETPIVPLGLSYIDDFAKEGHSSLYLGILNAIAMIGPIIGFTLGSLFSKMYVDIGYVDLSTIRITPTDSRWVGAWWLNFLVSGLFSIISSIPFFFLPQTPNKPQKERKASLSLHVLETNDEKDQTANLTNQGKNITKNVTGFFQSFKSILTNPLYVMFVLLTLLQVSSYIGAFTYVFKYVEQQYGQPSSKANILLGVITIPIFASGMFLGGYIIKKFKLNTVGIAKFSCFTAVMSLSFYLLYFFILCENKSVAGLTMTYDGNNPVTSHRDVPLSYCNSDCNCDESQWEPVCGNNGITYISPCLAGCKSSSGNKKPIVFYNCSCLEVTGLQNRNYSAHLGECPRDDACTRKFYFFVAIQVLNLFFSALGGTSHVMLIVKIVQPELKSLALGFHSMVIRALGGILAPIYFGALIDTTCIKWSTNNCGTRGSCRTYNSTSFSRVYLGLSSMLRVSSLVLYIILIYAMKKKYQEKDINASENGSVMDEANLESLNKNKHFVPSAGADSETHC
# [2] = biological target: T2, Solute carrier organic anion transporter family member 1B3 (Homo sapiens, UniProt Q9NPD5); conditions: chinese hamster, cho, 10 µM
# T2 sequence (Q9NPD5 whole entry): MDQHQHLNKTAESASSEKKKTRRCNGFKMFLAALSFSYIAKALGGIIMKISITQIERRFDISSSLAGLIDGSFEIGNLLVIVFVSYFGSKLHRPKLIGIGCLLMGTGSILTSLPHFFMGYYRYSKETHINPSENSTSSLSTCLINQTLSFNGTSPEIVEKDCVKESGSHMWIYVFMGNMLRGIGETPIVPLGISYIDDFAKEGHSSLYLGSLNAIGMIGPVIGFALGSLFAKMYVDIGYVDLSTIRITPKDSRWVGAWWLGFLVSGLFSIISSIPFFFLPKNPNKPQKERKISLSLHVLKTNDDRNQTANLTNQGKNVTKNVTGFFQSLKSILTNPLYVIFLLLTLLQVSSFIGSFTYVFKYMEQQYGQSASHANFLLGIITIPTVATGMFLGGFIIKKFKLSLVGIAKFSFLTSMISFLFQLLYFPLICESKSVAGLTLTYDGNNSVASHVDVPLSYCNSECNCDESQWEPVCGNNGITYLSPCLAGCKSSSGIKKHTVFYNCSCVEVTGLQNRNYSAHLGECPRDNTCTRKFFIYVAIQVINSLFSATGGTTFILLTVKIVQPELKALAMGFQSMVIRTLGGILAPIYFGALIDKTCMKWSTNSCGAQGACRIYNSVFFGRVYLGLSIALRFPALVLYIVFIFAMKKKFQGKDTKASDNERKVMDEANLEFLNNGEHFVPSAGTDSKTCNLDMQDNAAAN
SMILES,residual activity [1],residual activity [2]
O=C1CCC[C@@H]2[C@H]3C[C@@H](CN12)[C@@H]1CCCCN1C3.[O-][Cl+3]([O-])([O-])O,115.5%,104.5%
CC1(C)S[C@@H]2[C@H](NC(=O)[C@H](N)c3ccccc3)C(=O)N2[C@H]1C(=O)[O-].[Na+] [AMPICILLIN SODIUM],76.76%,88.9%
Cc1nc(C)c(Cl)c(O)c1Cl [CLOPIDOL],154.4%,91.88%
O=c1oc2ccccc2c(O)c1Cc1c(O)c2ccccc2oc1=O [DICUMAROL],33.08%,19.32%
CCCC(C(=O)OCCN(CC)CC)(c1ccccc1)c1ccccc1.Cl [PROADIFEN HYDROCHLORIDE],36.21%,53.55%
CO[C@]12C[C@@H](COC(=O)c3cncc(Br)c3)CN(C)[C@@H]1Cc1cn(C)c3cccc2c13 [NICERGOLINE],91.22%,124.1%
"C=CC(C1=CC(=O)C(OC)=CC1=O)c1ccc(OC)cc1 (centres undefined) [4,4'-DIMETHOXYDALBERGIONE]",116.4%,101.4%
CC(C)(C)NCC(O)c1cc(Cl)c(N)c(Cl)c1.Cl (centres undefined) [CLENBUTEROL HYDROCHLORIDE],78.76%,99.43%
C[C@@H]1C(=O)O[C@H]2C[C@@]34[C@H]5C[C@@H](C(C)(C)C)[C@]36[C@@H](OC(=O)[C@@H]6O)O[C@@]4(C(=O)O5)[C@]21O [GINKGOLIDE A],103.7%,113.8%
CC1(C)Oc2ccc3ccc(=O)oc3c2CC1O (centres undefined) [LOMATIN],92.91%,142.3%
O=C(NCO)c1cccnc1 [N-HYDROXYMETHYLNICOTINAMIDE],121.9%,92.24%
COc1cc(OC)c2c(=O)cc(-c3ccccc3)oc2c1 [CHRYSIN DIMETHYL ETHER],112.1%,103.1%
CCC[C@@H]1C[C@@H](C(=O)N[C@@H]([C@H]2O[C@H](SC)[C@H](O)[C@@H](O)[C@H]2O)[C@@H](C)O)N(C)C1.Cl.O [LINCOMYCIN HYDROCHLORIDE],83.01%,97.7%
CC(C)c1ccc2c(c1O)CC[C@H]1C3=C(CC[C@]21C)C(=O)OC3 [TRIPTOPHENOLIDE],120.3%,110.8%
"CC(=O)O[C@H]1CC[C@]2(C)C(C[C@H](OC(C)=O)[C@]3(C)C4=CC(=O)OC(c5ccoc5)[C@@]4(C)CCC23)C1(C)C (stereo partly drawn) [3beta,7beta-DIACETOXYDEOXODEACETOXYDEOXYDIHYDROGEDUNIN]",51.92%,67.84%
CCC(=O)NCC[C@@H]1CCc2ccc3c(c21)CCO3 [RAMELTEON],127.6%,113.4%
COc1ccc2cc1Oc1ccc(cc1)C[C@H]1c3cc(c(OC)cc3CCN1C)Oc1c(OC)c(OC)cc3c1[C@H](C2)N(C)CC3 [FANCHININ],75.74%,220.2%
"CCOC(=O)C1C(C=C(C)C)C1(C)C (centres undefined) [CHRYSANTHEMIC ACID, ETHYL ESTER]",83.17%,89.36%
O=C(/C=C/C(=O)Oc1ccccc1C(=O)O)Oc1ccccc1C(=O)O [BISSALICYL FUMARATE],104.8%,99.92%
Cl.c1ccc(CC2=NCCN2)cc1 [TOLAZOLINE HYDROCHLORIDE],74.2%,98.49%
C[C@@H]1O[C@@H](Oc2c(-c3ccc(O)c(O)c3)oc3cc(O)cc(O)c3c2=O)[C@H](O)[C@H](O)[C@H]1O [QUERCITRIN],107.2%,114.6%

SMILES,residual activity [1],residual activity [2]
C[C@@H]1CC[C@@]23CCC4(C)[C@@](C=CC5[C@@]6(C)CCC(=O)C(C)(C)C6CC[C@]54C)(OC2=O)C3[C@H]1C (some centres undefined) [3-OXOURSAN (28-13)OLIDE],105.6%,96.4%
CC1(C)S[C@@H]2[C@H](NC(=O)[C@H](NC(=O)N3CCNC3=O)c3ccccc3)C(=O)N2[C@H]1C(=O)[O-].[Na+] [AZLOCILLIN SODIUM],96.91%,85.12%
CC[C@H](CC[C@@H](C)[C@H]1CC[C@H]2[C@@H]3CC[C@H]4C[C@@H](O)CC[C@]4(C)[C@H]3CC[C@]12C)C(C)C [STIGMASTANOL],77.21%,102.9%
"O=c1cc(-c2ccccc2)oc2c(O)c(O)ccc12 [7,8-DIHYDROXYFLAVONE]",107.3%,140.6%
CNc1ccccc1C(=O)O,90.95%,100.4%
O=C(O)CCCc1ccc(N(CCCl)CCCl)cc1 [CHLORAMBUCIL],123.9%,102.7%
CCCN(CCC)S(=O)(=O)c1ccc(C(=O)O)cc1 [PROBENECID],81.99%,89.44%
C=C1c2c(Cl)ccc(O)c2C(=O)C2=C(O)[C@]3(O)C(=O)C(C(N)=O)=C(O)[C@@H](N(C)C)[C@@H]3[C@@H](O)[C@H]12.O=C(O)c1cc(S(=O)(=O)O)ccc1O [MECLOCYCLINE SULFOSALICYLATE],122.1%,107.8%
C[C@@H]1O[C@@H](O[C@H]2[C@H](O[C@H]3CC[C@@]4(C)[C@@H](CC[C@]5(C)[C@@H]4CC=C4[C@@H]6CC(C)(C)CC[C@]6(C(=O)O[C@@H]6O[C@H](CO[C@@H]7O[C@H](CO)[C@@H](O[C@@H]8O[C@@H](C)[C@H](O)[C@@H](O)[C@H]8O)[C@H](O)[C@H]7O)[C@@H](O)[C@H](O)[C@H]6O)CC[C@]45C)[C@]3(C)CO)OC[C@H](O)[C@@H]2O)[C@H](O)[C@H](O)[C@H]1O [KALOPANAXSAPONIN B],127.7%,109.8%
O=C(O)c1cccnc1 [NIACIN],124.4%,89.89%
COC[C@]12CN(C=O)C3[C@@H]4[C@H](OC)[C@H]1[C@@]3([C@@H](OC)C[C@H]2O)[C@@H]1C[C@@]2(O)[C@H](OC(=O)c3ccccc3)[C@@H]1[C@]4(OC(C)=O)[C@@H](O)[C@@H]2OC,90.86%,73.94%
CC(=O)N[C@H]1[C@H]([C@@H](O)[C@H](O)CO)O[C@@](O)(C(=O)O)C[C@@H]1O,93.14%,91.96%
CC1/C(=N/O)C[C@@H]2C[C@H]1C2(C)C (some centres undefined) [3-PINANONE OXIME],95.73%,123%
Cc1nccc2c1[nH]c1ccccc12 [HARMAN],81.51%,99.56%
CCN(CC)CCNC(=O)c1ccc(NC(C)=O)cc1.Cl [ACECAINIDE HYDROCHLORIDE],70.32%,90.6%
COc1ccc2[nH]cc(CCN)c2c1 [5-METHOXYTRYPTAMINE],59.83%,73.24%
NCCCC(=O)O [GAMMA-AMINOBUTYRIC ACID],56.63%,81.28%
COc1cc(C/C=C/c2ccccc2)c(OC)cc1O [VIOLASTYRENE],27.49%,47.88%
N=C(N)NCCCCN.O=S(=O)(O)O [AGMATINE SULFATE],111.9%,110%
Oc1cc(O)c2c(c1)O[C@H](c1cc(O)c(O)c(O)c1)[C@H](O)[C@H]2c1c(O)cc(O)c2c1O[C@H](c1cc(O)c(O)c(O)c1)[C@H](O)[C@H]2c1c(O)cc(O)c2c1O[C@H](c1cc(O)c(O)c(O)c1)[C@H](O)C2 [KATACINE],133.4%,99.79%
CC1(C)CC2C1CCC1(C)OC1CCC2(C)O (centres undefined) [2-HYDROXY-5 (6)EPOXY-TETRAHYDROCARYOPHYLLENE],70.41%,86.53%
